The conditions of data set [1]: rcm bond, DCE, 50.0 °C.
The next data set addresses T1, human plasma kallikrein (Homo sapiens, UniProt P03952).
T1 construct: purchased Enzyme Research Laboratories
The data set is described as follows: Plasma kallikrein enzyme inhibition assay (chromogenic substrate S-2302), Ki. Format: biochemical. Particulars: purified human plasma kallikrein, substrate S-2302, pH 7.5. As to the method:
(§1) The effectiveness of compounds of the present invention as inhibitors of the coagulation Factors XIa, VIIa, IXa, Xa, XIIa, plasma kallikrein chymotrypsin, trypsin, or thrombin, can be determined using a relevant purified serine protease, respectively, and an appropriate synthetic substrate. The rate of hydrolysis of the chromogenic or fluorogenic substrate by the relevant serine protease was measured both in the absence and presence of compounds of the present invention. […] A decrease in the rate of absorbance or fluorescence change in the presence of inhibitor is indicative of enzyme inhibition. Such methods are known to one skilled in the art. The results of this assay are expressed as the inhibitory constant, Ki.
Plasma kallikrein determinations were made in 0.1 M sodium phosphate buffer at a pH of 7.5 containing 0.1-0.2 M sodium chloride and 0.5% PEG 8000. Determinations were made using purified human plasma kallikrein (Enzyme Research Laboratories) at a final assay concentration of 200 pM and the synthetic substrate S-2302 (H-(D)-Pro-Phe-Arg-pNA; CHROMOGENIX®) at a concentration of 0.00008-0.0004 M.
(§2) The Michaelis constant, Km, for substrate hydrolysis by each protease, was determined at 25° C. or 37° C. in the absence of inhibitor. Values of Ki were determined by allowing the protease to react with the substrate in the presence of the inhibitor. Reactions were allowed to go for periods of 20-180 minutes (depending on the protease) and the velocities (rate of absorbance or fluorescence change versus time) were measured. The following relationships were used to calculate Ki values: (Vmax*S)/(Km+S) (vo−vs)/vs=I/(Ki*(1+S/Km)) for a competitive inhibitor with one binding site; or vs/vo=A+((B−A)/(1+(IC50/(I)^n)); and Ki=IC50/(1+S/Km) for a competitive inhibitor where: […]

The target in another data set is T2, human Factor XIa (Homo sapiens, UniProt P03951).
T2 construct: purchased Haematologic Technologies
T2 sequence (P03951 388-625 limits assumed): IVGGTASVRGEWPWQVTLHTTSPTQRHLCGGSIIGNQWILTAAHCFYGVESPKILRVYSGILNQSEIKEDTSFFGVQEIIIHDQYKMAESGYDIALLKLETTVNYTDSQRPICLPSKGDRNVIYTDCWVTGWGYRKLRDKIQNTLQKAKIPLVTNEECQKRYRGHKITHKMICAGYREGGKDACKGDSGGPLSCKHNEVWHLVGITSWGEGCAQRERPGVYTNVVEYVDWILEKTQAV
T2 sequence (P03951 19-387 partner limits assumed): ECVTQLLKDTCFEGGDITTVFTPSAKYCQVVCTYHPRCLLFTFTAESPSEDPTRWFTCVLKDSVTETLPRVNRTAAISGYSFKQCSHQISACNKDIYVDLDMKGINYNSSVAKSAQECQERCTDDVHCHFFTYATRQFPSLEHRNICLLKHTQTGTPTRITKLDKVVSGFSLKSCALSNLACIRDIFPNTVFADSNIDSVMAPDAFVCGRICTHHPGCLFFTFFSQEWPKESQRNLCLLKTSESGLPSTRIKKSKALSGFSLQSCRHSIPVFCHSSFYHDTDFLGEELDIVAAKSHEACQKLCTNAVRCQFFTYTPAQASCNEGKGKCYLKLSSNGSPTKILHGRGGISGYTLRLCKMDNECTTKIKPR
The data set is described as follows: Factor XIa enzyme inhibition assay (chromogenic substrate S-2366), Ki. The note with it: purified human Factor XIa, substrate S-2366, pH 7.4. Format: biochemical. As to the method:
as §1
Factor XIa determinations were made in 50 mM HEPES buffer at pH 7.4 containing 145 mM NaCl, 5 mM KCl, and 0.1% PEG 8000 (polyethylene glycol; JT Baker or Fisher Scientific). Determinations were made using purified human Factor XIa at a final concentration of 25-200 pM (Haematologic Technologies) and the synthetic substrate S-2366 (pyroGlu-Pro-Arg-pNA; CHROMOGENIX® or AnaSpec) at a concentration of 0.0002-0.001 M.
as §2

Where a name gives a salt, the structure may show the parent alone. Read-outs that look alike come from different tables or passages of the source.

T1 sequence (P03952 391-638 limits assumed): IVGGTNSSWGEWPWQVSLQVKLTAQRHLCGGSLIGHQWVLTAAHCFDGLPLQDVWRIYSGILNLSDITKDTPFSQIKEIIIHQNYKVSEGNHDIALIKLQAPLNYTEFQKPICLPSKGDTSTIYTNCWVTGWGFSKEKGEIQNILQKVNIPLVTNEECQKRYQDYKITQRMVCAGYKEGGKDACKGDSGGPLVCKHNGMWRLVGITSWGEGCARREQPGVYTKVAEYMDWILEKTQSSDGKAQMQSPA
T1 sequence (P03952 20-390 partner limits assumed): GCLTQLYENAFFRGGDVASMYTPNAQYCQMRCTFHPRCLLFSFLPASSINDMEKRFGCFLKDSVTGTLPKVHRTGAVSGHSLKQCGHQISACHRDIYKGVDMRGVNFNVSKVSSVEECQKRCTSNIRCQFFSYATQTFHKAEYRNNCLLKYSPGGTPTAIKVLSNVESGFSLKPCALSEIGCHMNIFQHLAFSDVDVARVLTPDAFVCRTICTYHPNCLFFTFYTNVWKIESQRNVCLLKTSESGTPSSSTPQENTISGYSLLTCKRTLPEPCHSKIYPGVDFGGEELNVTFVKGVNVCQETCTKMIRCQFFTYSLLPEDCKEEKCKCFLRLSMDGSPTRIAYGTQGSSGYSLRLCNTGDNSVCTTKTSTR

Regarding `CC(C)(C)OC(=O)N1CCN2c3cccc(c3)[C@@H](NC(=O)OCc3ccccc3)C/C=C/CCNC(=O)[C@@H]2C1`, the ring closure, isolated yield in data set [1] (from C=CCCNC(=O)[C@@H]1CN(C(=O)OC(C)(C)C)CCN1c1cccc([C@H](CC=C)NC(=O)OCc2ccccc2)c1, 13-membered ring, Grubbs II (40 mol%), 7.55 mM, 5.0 h) stood at 93%.

Take `CC(C)(C)OC(=O)N1CCN2c3cccc(c3)[C@@H](NC(=O)OCc3ccccc3)C/C=C/CCNC(=O)[C@H]2C1`: in data set [1] (from C=CCCNC(=O)[C@H]1CN(C(=O)OC(C)(C)C)CCN1c1cccc([C@H](CC=C)NC(=O)OCc2ccccc2)c1, 13-membered ring, Grubbs II (20 mol%), 9.78 mM, 5.0 h), the ring closure, isolated yield came to 81%.

In data set [1] (from C=CCNC(=O)[C@H]1CN(C(=O)OC(C)(C)C)CCN1c1cccc([C@H](CC=C)NC(=O)OCc2ccccc2)c1, 12-membered ring, Grubbs II (20 mol%), 9.1 mM, 5.0 h), `CC(C)(C)OC(=O)N1CCN2c3cccc(c3)[C@@H](NC(=O)OCc3ccccc3)C/C=C/CNC(=O)[C@H]2C1` displayed a ring closure, isolated yield of 38.6%.

As to `CC(C)(C)OC(=O)NC[C@H]1Nc2cccc(c2)[C@@H](NC(=O)OCc2ccccc2)C/C=C/CCNC1=O`, the ring closure, isolated yield in data set [1] (from C=CCCNC(=O)[C@@H](CNC(=O)OC(C)(C)C)Nc1cccc([C@H](CC=C)NC(=O)OCc2ccccc2)c1, 13-membered ring, Grubbs II (20 mol%)/pTsOH.H2O (1 eq), 10.2 mM, 5.0 h) was determined as 37%.

`O=C1CN2c3cccc(c3)[C@@H](NC(=O)OCc3ccccc3)CC=CCCNC(=O)C2CN1` (stereo partly drawn) showed a ring closure, isolated yield in data set [1] (from C=CCCNC(=O)C1CNC(=O)CN1c1cccc([C@H](CC=C)NC(=O)OCc2ccccc2)c1, 13-membered ring, Grubbs II (20 mol%), 9.0 mM, 2.5 h) of 89%.

`CC(C)(C)OC(=O)N1CC(=O)N2c3cccc(c3)[C@@H](NC(=O)OCc3ccccc3)CC=CCCNC(=O)[C@H]2C1` (mixture of isomers): the ring closure, isolated yield in data set [1] (from C=CCCNC(=O)[C@H]1CN(C(=O)OC(C)(C)C)CC(=O)N1c1cccc([C@H](CC=C)NC(=O)OCc2ccccc2)c1, 13-membered ring, Grubbs II (30 mol%), 9.54 mM, 2.0 h) was found to be 76%.

`O=C1CN2c3cccc(c3)[C@@H](n3cnc(-c4cc(Cl)ccc4-n4cc(Cl)nn4)cc3=O)CCCCCNC(=O)C2CN1` (stereo partly drawn) [Example 25, (15S)-15-{4-[5-chloro-2-(4-chloro-1H-1,2,3-triazol-1-yl)phenyl]-6-oxo-1,6-dihydropyrimidin-1-yl}-2,5,9-triazatricyclo[14.3.1.0^2,7]icosa-1(20),16,18-triene-4,8-dione]: the Ki (usually the dissociation constant of the complex between target and ligand, obtained from inhibition or displacement) at human plasma kallikrein came to 6750 nM; at human Factor XIa, 51 nM.

On to `CC(C)(C)OC(=O)NCC[C@H]1Nc2cccc(c2)[C@@H](n2cnc(-c3cc(Cl)ccc3-n3cc(Cl)nn3)cc2=O)CCCCCNC1=O` [Example 26, tert-butyl N-{2-[(3R,11S)-11-{4-[5-chloro-2-(4-chloro-1H-1,2,3-triazol-1-yl)phenyl]-6-oxo-1,6-dihydropyrimidin-1-yl}-4-oxo-2,5-diazabicyclo[10.3.1]hexadeca-1(16),12,14-trien-3-yl]ethyl}carbamate trifluoromethylacetate], for which the results for the Ki at human plasma kallikrein and on human Factor XIa were 430 nM and 24 nM, respectively.

Take `NCC[C@H]1Nc2cccc(c2)[C@@H](n2cnc(-c3cc(Cl)ccc3-n3cc(Cl)nn3)cc2=O)CCCCCNC1=O` [Example 27, (3R,11S)-3-(2-aminoethyl)-11-{4-[5-chloro-2-(4-chloro-1H-1,2,3-triazol-1-yl)phenyl]-6-oxo-1,6-dihydropyrimidin-1-yl}-2,5-diazabicyclo[10.3.1]hexadeca-1(16),12,14-trien-4-one hydrochloride]: the Ki on human plasma kallikrein was 14000 nM; at human Factor XIa, 871 nM.

As to `COC(=O)NCC[C@H]1Nc2cccc(c2)[C@@H](n2cnc(-c3cc(Cl)ccc3-n3cc(Cl)nn3)cc2=O)CCCCCNC1=O` [Example 28, methyl N-{2-[(3R,11S)-11-{4-[5-chloro-2-(4-chloro-1H-1,2,3-triazol-1-yl)phenyl]-6-oxo-1,6-dihydropyrimidin-1-yl}-4-oxo-2,5-diazabicyclo[10.3.1]hexadeca-1(16),12,14-trien-3-yl]ethyl}carbamate trifluoromethyl acetate], the Ki on human plasma kallikrein was determined as 83 nM; on human Factor XIa, 5 nM.

As to `O=C(NCC[C@H]1Nc2cccc(c2)[C@@H](n2cnc(-c3cc(Cl)ccc3-n3cc(Cl)nn3)cc2=O)CCCCCNC1=O)c1ccn(C(F)F)n1` [Example 29, N-{2-[(3R,11S)-11-{4-[5-chloro-2-(4-chloro-1H-1,2,3-triazol-1-yl)phenyl]-6-oxo-1,6-dihydropyrimidin-1-yl}-4-oxo-2,5-diazabicyclo[10.3.1]hexadeca-1(16),12,14-trien-3-yl]ethyl}-1-(difluoromethyl)-1H-pyrazole-3-carboxamide trifluoromethyl acetate], the Ki on human plasma kallikrein came to 49 nM; on human Factor XIa, 5 nM.

For the molecule `COC(=O)NCC[C@@H]1Nc2cccc(c2)[C@@H](n2cnc(-c3cc(Cl)ccc3-n3cc(Cl)nn3)cc2=O)CCCCCNC1=O` [Example 30, methyl N-{2-[(3S,11S)-11-{4-[5-chloro-2-(4-chloro-1H-1,2,3-triazol-1-yl)phenyl]-6-oxo-1,6-dihydropyrimidin-1-yl}-4-oxo-2,5-diazabicyclo[10.3.1]hexadeca-1(16),12,14-trien-3-yl]ethyl}carbamate trifluoromethyl acetate], the Ki on human plasma kallikrein turned out to be 5680 nM; at human Factor XIa it was 515 nM.

`COC(=O)NCC[C@@H]1Nc2cccc(c2)[C@@H](NC(=O)c2cnn(-c3cccc(Cl)c3F)c2Cl)CCCCCNC1=O` [Example 31, methyl N-{2-[(3S,11S)-11-[5-chloro-1-(3-chloro-2-fluorophenyl)-1H-pyrazole-4-amido]-4-oxo-2,5-diazabicyclo[10.3.1]hexadeca-1(16),12,14-trien-3-yl]ethyl}carbamate, trifluoromethylacetate]: the Ki is 9490 nM at human plasma kallikrein and 1830 nM at human Factor XIa.

In the case of `O=C1NCCCC[C@H](n2cnc(-c3c(-n4cc(Cl)nn4)ccc(Cl)c3F)cc2=O)c2cc(F)cc(c2)N2C(=O)CC[C@H]12` [Example 32, (6R,13S)-13-{4-[3-chloro-6-(4-chloro-1H-1,2,3-triazol-1-yl)-2-fluorophenyl]-6-oxo-1,6-dihydropyrimidin-1-yl}-16-fluoro-2,8-diazatricyclo[12.3.1.0^2,6]octadeca-1(18),14,16-triene-3,7-dione], the Ki came out at 5300 nM on human plasma kallikrein and 77.5 nM at human Factor XIa.

Take `O=C1NCCCCC[C@H](n2cnc(-c3cc(Cl)ccc3-n3cc(C(F)(F)F)nn3)cc2=O)c2cccc(c2)N2C(=O)CC[C@H]12` [Example 33, (6R,14S)-14-(4-{5-chloro-2-[4-(trifluoromethyl)-1H-1,2,3-triazol-1-yl]phenyl}-6-oxo-1,6-dihydropyrimidin-1-yl)-2,8-diazatricyclo[13.3.1.0^2,6]nonadeca-1(19),15,17-triene-3,7-dione]: the results for the Ki at human plasma kallikrein and on human Factor XIa were 319 nM and 12 nM, respectively.

As for `O=C1NCCCCC[C@H](n2cnc(-c3c(-n4cc(Cl)nn4)ccc(Cl)c3F)cc2=O)c2cccc(c2)N2C(=O)CC[C@H]12` [Example 34, (6R,14S)-14-{4-[3-chloro-6-(4-chloro-1H-1,2,3-triazol-1-yl)-2-fluorophenyl]-6-oxo-1,6-dihydropyrimidin-1-yl}-2,8-diazatricyclo[13.3.1.0^2,6]nonadeca-1(19),15,17-triene-3,7-dione], the Ki on human plasma kallikrein is 134 nM; at human Factor XIa, 6 nM.

Regarding `O=C1NCCCCC[C@H](n2cnc(-c3c(-n4cc(Cl)nn4)ccc(Cl)c3F)cc2=O)c2cccc(c2)N2C(=O)CC[C@@H]12` [Example 35, (6S,14S)-14-{4-[3-chloro-6-(4-chloro-1H-1,2,3-triazol-1-yl)-2-fluorophenyl]-6-oxo-1,6-dihydropyrimidin-1-yl}-2,8-diazatricyclo[13.3.1.0^2,6]nonadeca-1(19),15,17-triene-3,7-dione], the Ki on human plasma kallikrein was found to be 11100 nM; on human Factor XIa, 5170 nM.

On to `O=C1NCCCCC[C@H](n2cnc(-c3cc(Cl)ccc3-n3cc(Cl)nn3)cc2=O)c2cccc(c2)N2CCC[C@H]12` [Example 36, (6R,14S)-14-{4-[5-chloro-2-(4-chloro-1H-1,2,3-triazol-1-yl)phenyl]-6-oxo-1,6-dihydropyrimidin-1-yl}-2,8-diazatricyclo[13.3.1.0^2,6]nonadeca-1(19),15,17-trien-7-one], for which the figures for the Ki on human plasma kallikrein and at human Factor XIa were 133 nM and 8 nM, respectively.

(Values after patent US10676477B2, “Factor XIa macrocycle inhibitors bearing a non-aromatic P2' group” (BRISTOL-MYERS SQUIBB COMPANY, priority 2015, dated 2020).)
